Laboratory results reported in US20100204277A1, “Compositions and Methods for Controlling Infestation” (HATCHTECH PTY LTD., priority 2007, published 2010).
“And” between values parts separate entries of the source, which are not always exact repeats. Identical values can stand only once. Like-named read-outs stand apart in the source and are kept apart here.

Legend:
[1] = test system: Plutella xylostella eggs (Waite strain); assay: Plutella xylostella egg hatch (egg dip); details: for ovicidal efficacy against Plutella eggs (FIG. 7): 1% diethoxyglycol; for egg hatching of Plutella eggs (Tables 10 and 11): cloth or parafilm; for % Inhibition of egg hatch relative to control: Example 12, dip 2-10 seconds, day 6 post laying
Experimental: Several hundred Plutella xylostella eggs (Waite strain) were collected, that had been laid over a 24 hour period.
The egg masses were then placed in a humid box at 25° C. until egg hatch. Control eggs were exposed to absolute methanol as described above. At day 6 post laying the eggs were assessed from the different treatments and the percentage of egg hatch determined relative to the control as shown in Table 9.
Batches of Plutella eggs that were laid on either fine cloth or parafilm were dipped in a specific inhibitor solution for between 2-10 seconds, the excess solution was drained by blotting with dry tissue paper. The egg masses were then placed in a humid box at 25 degrees until egg hatch. Control eggs were exposed to absolute methanol as described above or not treated. At day 6 post laying the eggs were assessed from the different treatments and the percentage of egg hatch determined relative to the controls as shown in Tables 10 and 11.
The egg masses were then placed in a humid box at 25 degrees until egg hatch. Control eggs were exposed to absolute ethanol as described above. On day 6 post laying the eggs were assessed from the different treatments and the percentage of egg hatch determined relative to the control.

H. contortus eggs = assay: Haemonchus contortus egg hatch; format: in vivo
Experimental: In an attempt to improve control of H. contortus the effects of the compound 5,5′-dimethyl-2,2′-dipyridyl was examined on H. contortus eggs. Eggs were recovered from the faeces of infected sheep using a standard sucrose floatation method. The eggs were corrected to a density of approximately 2,500 eggs per mL and were then exposed to varying concentrations of compound and incubated for 48 hours at 25° C. The eggs were then examined to determine the ovicidal efficacy of the compound in comparison to untreated control and a solvent only control.
In addition, the ovicidal efficacy of the compound 2-acetyl-1-tetralone was examined against H. contortus (FIG. 10). The same protocol was used as described for 5,5′-dimethyl-2,2′-dipyridyl.

[2] = test system: Lice (L) / Plutella (P) eggs; format: in vivo; details: Lice/Plutella: P
Experimental: Log LD50 is obtained from the observed percentage ovicidal activity by conversion using a modified logit transformation. The observed percentage ovicidal activity values were transformed using the equation:
The additional 5% was used to allow a number to be calculated when 0% and 100% activity was observed. The BA is a crude correction to the log of the concentration at which the compounds were tested. Correlation between BA values and LD50 allows the calculation of Log LD50. […] A number of metal chelating agents with potential for inhibiting the remodelling events associated with thin membrane egg hatching in lice were analysed by comparing their percentage ovicidal activity in lice at different concentrations, their logit calculated pLD50, Pref pLD50, Activity class, clogP and molar refractivity were determined.

[3] = test system: Helicoverpa armigera eggs; assay: Helicoverpa egg hatch; details: for ovicidal efficacy against H. armigera eggs (FIG. 6): 1% diethoxyglycol in water; for % Inhibition of egg hatch relative to control: Example 16, exposed 2-10 seconds, day 6 post laying
Experimental: A range of concentrations were made up in water and the eggs placed in the solutions for approximately 2-10 seconds. The eggs which had been laid on cloth were then blotted dry and placed in an incubator at 26° C. for 3-4 days until hatch. Hatch rates were then assessed compared to a water only treated control (FIG. 5).
The compound was dissolved in 100% diethoxyglycol and diluted to a final concentration of 1% in water.
Several hundred Helicoverpa armigera eggs (Tatura×Toowoomba strains) were collected, that had been laid on fine mesh cloth over a 24 hour period.
Batches of Helicoverpa eggs were exposed to a specific inhibitor solution for between 2-10 seconds the excess solution drained by blotting with dry tissue paper. The egg masses were then placed in a humid box at 25 degrees until egg hatch. Control eggs were exposed to absolute methanol as described above. At day 6 post laying the eggs were assessed from the different treatments and the percentage of egg hatch determined relative to the control as shown in Table 12.
Batches of Helicoverpa eggs were then exposed to a specific inhibitor solution for between 2-10 seconds the excess solution drained by blotting with dry tissue paper. The egg masses were then placed in a humid box at 25° C. until egg hatch. Control eggs were exposed to absolute methanol as described above. At day 6 post laying the eggs were assessed from the different treatments and the percentage of egg hatch determined relative to the control as shown in Table 13.

head lice eggs = assay: Formulated compound on egg hatching in head lice; format: in vivo; details: 20 mM formulation
Experimental: Gravid female lice were permitted to lay eggs. The eggs were counted, inspected under a light microscope and all eggs that appeared undamaged were allocated to one of two treatment groups. One group was exposed to 5′-dimethyl-2,2′-dipyridyl in a formulation, while the second group was exposed to the formulation only. The protocol was as follows:
Treatments: 5′-dimethyl-2,2′-dipyridyl (20 mM) n=10 • Vehicle control only n=10
Exposure time: 10 minutes
Wash time: 1 minute @˜37° C.
Incubation: All eggs were placed at 31° C. in a humid incubator and monitored for signs of development specifically of the eyes and subsequent hatching, see Table 21.

house dust mite = assay: House dust mite counts on treated filter paper; format: in vivo, Dermatophagoides spp; details: per replicate; for 2 week count (mite count): 2 weeks at 25° C. and 75% RH
Experimental: A filter paper (90 mm diameter) was taken and placed in a Petri dish of the same dimensions. The filter paper was then wetted throughout with the test compound, using a small air pump sprayer. The wetted filter paper was then allowed to dry in free flowing air. 200 mg dust mite medium, containing roughly 500 mites/g, was placed on the filter paper and the number of mites counted under a microscope. The arena was then left for 2 weeks on an incubator at 25° C. and 75% RH. After 2 weeks the number of mites in the arena was counted for a second time. This experiment was repeated 3 times with the test compound and a further 3 times using water as a control.

[4] = test system: Third stage H. contortus larvae; assay: Survival of third stage H. contortus larvae (L3 to L4); format: in vivo, Haemonchus contortus
Experimental: Third stage H. contortus larvae were exposed to varying concentrations of 5,5′-dimethyl-2,2′-dipyridyl and the effects on moulting from L3 to L4 examined. The larvae were either exsheathed (their L2 sheath was removed chemically) or unexsheathed (their L2 sheaths were intact). The larvae were exposed to varying concentrations of 5,5′-dimethyl-2,2′-dipyridyl added to their culture media of DMEM and the effects on larval survival monitored over time. Following a 30 minute incubation at 37° C., greater than 90% of the exsheathed larvae exposed to 1 and 0.5 mM of the compound appeared dead. […] By day six post exposure greater than 90% of the larvae appeared to have died in the treatment groups while the control larvae appeared healthy.

[5] = test system: Plutella xylostella eggs (Waite strain); assay: Reversal of ovicidal effect by added metal ions (FeSO4), Plutella eggs; format: in vivo
Experimental: (§1) Within 24 hours of collection the following experimental design was chosen. Batches of eggs were exposed to 10 mM 6,6′-dimethyl-2,2′-dipyridyl for 2 seconds while additional batches of eggs were exposed to the solvent only (Methanol) for 2 seconds. All batches of eggs were allowed to air dry for 20 minutes at room temperature. The eggs were then given a 2 second exposure to FeSO4 at either 10, 5 or 1 mM, air dried and put in the incubator at 24° C. and allowed to hatch over the next 6 days. In addition, a positive control of 10 mM 6,6′-dimethyl-2,2′-dipyridyl was set up in which eggs were exposed to this compound for 2 seconds, air dried and placed in the incubator.
as §1, with “10 mM 5,5′-dimethyl-2,2′-dipyridyl for 2” for “10 mM 6,6′-dimethyl-2,2′-dipyridyl for 2”, “FeSO4 at 10, 5” for “FeSO4 at either 10, 5”, “put in an incubator at” for “put in the incubator at”, “of 10 mM, 5,5′-dimethyl-2,2′-dipyridyl was set” for “of 10 mM 6,6′-dimethyl-2,2′-dipyridyl was set”

[6] = 10 mM compound followed by 2 second exposure to 1 mM FeSO4
[7] = 10 mM compound followed by 2 second exposure to 5 mM FeSO4
[8] = 10 mM compound followed by 2 second exposure to 10 mM FeSO4

Compound: CC(=O)C1CCc2ccccc2C1=O (stereo not drawn) [2-acetyl-1-tetralone]
- ovicidal efficacy against Plutella eggs (FIG. 7) ([1]; 0.5 mM): no inhibition
- ovicidal efficacy against Plutella eggs (FIG. 7) ([1]; 2 and 1 mM): strong ovicidal efficacy
- inhibition of H. contortus egg hatch (FIG. 10) (H. contortus eggs; 22 ug/mL (0.1 mM)): Partial inhibition
- inhibition of H. contortus egg hatch (FIG. 10) (H. contortus eggs; 220 ug/mL (1 mM) and 110 ug/mL (0.5 mM)): highly effective
- Activity class 0 = inactive 1 = low 2 = med 3 = high ([2]; 1 mM): 3 (a pLD50 greater than 4 is considered strongly active (Class 3))
- Activity class 0 = inactive 1 = low 2 = med 3 = high ([2]; 10 mM): 1 (a pLD50 value between 2 and 3 is considered weakly active (Class 1))
- ovicidal efficacy against H. armigera eggs (FIG. 6) ([3]; 1 mM): efficacy declining
- ovicidal efficacy against H. armigera eggs (FIG. 6) ([3]; 2 mM): strong ovicidal efficacy

Compound: Cc1ccc(-c2ccc(C)cn2)nc1 [5,5′-dimethyl-2,2′-dipyridyl]
- egg hatching of Plutella eggs (Tables 10 and 11) ([1]; 10 and 1 mM): significantly inhibit
- egg hatching in head lice (head lice eggs; 10 minutes exposure): significantly suppress
- eggs that failed to hatch (head lice eggs; the eggs other than the two that developed): 80%
- ovicidal efficacy on H. contortus eggs (FIG. 8) (H. contortus eggs; 180 and 18 ug/mL (equivalent to 1 and 0.1 mM), 48 hours at 25° C.): potently ovicidal
- 2 week count (mite count) (house dust mite; listed as Test Compound): 50 and 90
- 2 week count (mite count) (house dust mite; listed as Test compound): 74
- 1 hour count (mite count) (house dust mite; listed as Test Compound): 61 and 104
- 1 hour count (mite count) (house dust mite; listed as Test compound): 76
- appearance of unexsheathed larvae ([4]; 10 μM, up to 6 days post exposure): appeared normal
- effects on unexsheathed larvae compared to control larvae ([4]; up to 3 days post exposure): no adverse effects
- % Inhibition relative to the FeSO4 controls [5, 6]: 0%
- % Inhibition relative to the FeSO4 controls [5, 7]: 0%
- % Inhibition relative to the FeSO4 controls [5, 8]: 8%

Compound: Cc1cccc(-c2cccc(C)n2)n1 [6,6′-dimethyl-2,2′-dipyridyl]
- % Inhibition of egg hatch relative to control ([1]; 1 mM): strong ovicidal effects
- % Inhibition of egg hatch relative to control ([1]; 10 mM): strong ovicidal effects
- egg hatching of Plutella eggs (Tables 10 and 11) ([1]; 0.1 and 0.01 mM): no observable effects
- egg hatching of Plutella eggs (Tables 10 and 11) ([1]; 10 and 1 mM): effective at inhibiting egg hatching
- % Inhibition of egg hatch relative to control ([3]; 0.001 mM): No inhibition
- % Inhibition of egg hatch relative to control ([3]; 0.01 mM): No inhibition
- % Inhibition of egg hatch relative to control ([3]; 0.1 mM): No inhibition
- % Inhibition of egg hatch relative to control ([3]; 1 mM): significantly inhibit
- % Inhibition of egg hatch relative to control ([3]; 10 mM): significantly inhibit
- % Inhibition relative to the FeSO4 controls [5, 6]: 3%
- % Inhibition relative to the FeSO4 controls [5, 7]: 0%
- % Inhibition relative to the FeSO4 controls [5, 8]: 38%
